# Results reported in patent US10105395B2, “Microvesicles (MVs) derived from adult stem cells for use in the therapeutic treatment of a tumor disease” (Fresenius Medical Care Deutschland GmbH, priority 2010, dated 2018).
# Tests used:
# Assay type in all cases: cell-based, human
# HepG2 cells = experiment: TUNEL apoptotic assay, MVs from MSCs; settings: 24 and 48 hours, compared to vehicle alone; doxorubicin 100 ng/ml
# Method: (§1) HepG2, MCF-7, SKOV-3, KS cells, HUVECs or TECs were seeded at 8,000 cells/well into 96-well plated in DMEM (Sigma) with 10% FCS and in the presence of doxorubicin (100 ng/ml, Sigma) or different concentrations of MVs (10 and 30 μg/ml) pre-treated or not with RNase. Apoptosis was assessed by TUNEL assay (ApopTag Oncor, Gaithersburg, Md., USA). After 24 or 48 hours of treatment, the cells were washed with PBS, fixed in 1% paraformaldehyde pH 7.4 for 15 minutes at 4° C., washed twice in PBS and then post-fixed in pre-cooled ethanol-acetic acid 2:1 for 5 minutes at −20° C. The samples were treated with the enzyme terminal deoxynucleotidyl transferase (TdT). The cells were then treated with heated anti-digoxigenin conjugate with fluorescein and incubated for 30 minutes at room temperature. The samples were mounted in medium containing 1 μg/ml of propidium iodide and the cells analyzed by immunofluorescence. The results are expressed as the percentage of green fluorescence emitting cells (apoptotic cells) versus red fluorescence emitting cells (total cells).
# [1] = system: KS cells (Kaposi's sarcoma cells); experiment: TUNEL apoptotic assay, MVs from MSCs; settings: 24 and 48 hours, compared to vehicle alone; doxorubicin 100 ng/ml
# Method: as §1
# HepG2 hepatoma cell line = experiment: TUNEL apoptosis assay, MVs from HLSCs; settings: MVs 30 μg/ml; vincristine 100 ng/ml; 24 hours
# Method: Apoptosis was evaluated using the terminal dUTP nickend labeling assay (ApoTag; Oncor, Gaithersburg, Md.). Cells ([…]) were cultured in 96-well plate, suspended in phosphate-buffered saline (PBS) and fixed in 1% paraformaldehyde in PBS, pH 7.4, for 15 minutes at 4° C. followed by pre-cooled ethanol/acetic acid (2:1) for 5 minutes at −20° C. Cells were treated with terminal deoxynucleotide transferase enzyme and incubated in a humidified chamber for 1 hour at 37° C. and then treated with warmed fluorescein isothiocyanate-conjugated antidigoxigenin for 30 minutes at room temperature. After washing, samples were mounted in a medium containing […] of propidium iodide and the cells were analyzed by immunofluorescence.
# The ability of HLSC-derived MVs to induce apoptosis on HepG2 was evaluated. Briefly, HepG2 were seeded at a density of 8,000 cells/well into 96-well plates in DMEM with 10% FCS and apoptosis was induced by culture in the absence of FCS, by treatment with vincristine (100 ng/ml), or doxorubicin (50 ng/ml), two mitotic inhibitors used in cancer chemotherapy, or by MV treatment (30 μg/ml). […] Apoptosis was evaluated using the TUNEL assay analysis at […].
Compound,apoptosis of HepG2 cells (Tunel assay) (HepG2 cells),apoptosis of KS cells (Tunel assay) [1],HepG2 apoptosis (TUNEL assay) (HepG2 hepatoma cell line)
COc1cccc2c1C(=O)c1c(O)c3c(c(O)c1C2=O)C[C@@](O)(C(=O)CO)C[C@@H]3O[C@H]1C[C@H](N)[C@H](O)[C@H](C)O1 [doxorubicin],apoptosis induced by doxorubicin,apoptosis induced by doxorubicin,–
CC[C@]1(O)C[C@H]2CN(CCc3c([nH]c4ccccc34)[C@@](C(=O)OC)(c3cc4c(cc3OC)N(C=O)[C@H]3[C@@](O)(C(=O)OC)[C@H](OC(C)=O)[C@]5(CC)C=CCN6CC[C@]43[C@@H]65)C2)C1 [vincristine],–,–,induced by vincristine
